Laboratory results taken from patent US20060281791A1, “Methods of increasing proliferation of adult mammalian cardiomyocytes through p38 map kinase inhibition” (CHILDREN'S MEDICAL CENTER CORPORATION, priority 2005, published 2006).

Columns and labels:
Format in all cases: in vivo, rat
[1] = system: myocardial infarction in adult rats; assay: Fractional shortening (echocardiography) after myocardial infarction
Procedure: The p38 inhibitors were tested for in vivo effect following myocardial infarct. For the evaluation of left ventricular function, transthoracic echocardiogram can be performed on the rats after myocardial infarction 1 day or 14 days right. Rats can be anesthetized with 4-5% isoflurane in an induction chamber. The chest can be shaved, and the rats can be placed in dorsal decubitus position and intubated for continuous ventilation. 1-2% isoflurane can be continuously supplied via a mask. 3 electrodes can be adhered to their paws to record the electrocardiographic tracing simultaneously with the cardiac image identifying the phase of a cardiac cycle.
Echocardiograms can be performed with a commercially available echocardiography system equipped with 7.5 MHz phased-array transducer (Philips-Hewlett-Packard). The transducer can be positioned on the left anterior side of the chest. Longitudinal images of the heart can be obtained, including the left ventricle, atrium, the mitral valve and the aorta, followed by the cross-sectional images from the plane of the base to the left ventricular apical region. M-mode tracings can be obtained at the level below the tip of the mitral valve leaflets at the level of the papillary muscles. Fractional shorting (FS) can be calculated as a measure of systolic function, according to the M-mode tracing from the cross-sectional view: maximal LV end-diastolic diameter (at the time of maximal cavity dimension), minimal LV end-systolic diameter (at the time of maximum anterior motion of the posterior wall), FS (%)={(LVEDD−LVESD)/LVEDD}×100.
(§1) To determine whether p38 inhibition/FGF1 stimulation can induce cardiomyocyte proliferation in vivo and whether it has a positive effect on cardiac function after cardiac injury we created myocardial infarctions (MI) in adult rats (250 g) by coronary artery ligation. The p38 inhibitor SB203580 HCl or its vehicle, saline, were injected intraperitoneal every three days for the first month of the study. FGF1 or its carrier BSA was injected mixed with self-assembling peptides once into the infarct border zone immediately after coronary artery ligation. We injecting a total of 80 μl of 400 ng/ml FGF1, given at 3 different injection sites, into 400 mg of infarcted myocardium estimated to deliver a FGF 1 concentration to the cardiomyocytes of approximately 50 to 100 ng/ml. Animals were analyzed 24 hours, 2 weeks, and 3 month after surgery. We performed two blinded and randomized studies using 62 rats for the 2 week and 61 rats for the 3 month experiment, with at least 10 animals in each experimental group. Animals were treated with saline plus BSA (control), SB203580 HCl plus BSA (p38i), saline plus FGF1 (FGF1), or SB203580 HCl plus FGF1 (p38i/FGF1).
Animal experiments were performed in accordance with guidelines of Children's Hospital in Boston and were approved by the Harvard Medical School Standing Committee on Animals. Myocardial infarction (MI) was produced in ˜250 gm male Sprague-Dawley rats (Charles River and Harlan) as described previously (Hsieh et al., 2006). Briefly, rats were anesthetized by pentobarbital and, following tracheal intubation, the hearts were exposed via left thoracotomy. The left coronary artery was identified after pericardiotomy and was ligated by suturing with 6-0 prolene at the location ˜3mm below the left atrial appendix. For the sham operation, suturing was performed without ligation. […]

[2] = system: myocardial infarction in adult rats; assay: Thinning index (ventricular wall thinning) after myocardial infarction
Procedure: To determine whether p38 inhibition/FGF1 stimulation can induce cardiomyocyte proliferation in vivo and whether it has a positive effect on cardiac function after cardiac injury we created myocardial infarctions (MI) in adult rats (250 g) by coronary artery ligation. The p38 inhibitor SB203580 HCl or its vehicle, saline, were injected intraperitoneal every three days for the first month of the study. FGF1 or its carrier BSA was injected mixed with self-assembling peptides once into the infarct border zone immediately after coronary artery ligation. […] Animals were analyzed 24 hours, 2 weeks, and 3 month after surgery. […]
Ventricular wall thinning is an important parameter of heart function. Thus, we determined the thickness of the ventricular wall after injury. For this purpose we calculated the thinning index (ratio of minimal ventricular wall thickness to maximal thickness of the septum). […]
Scar formation was determined as fibrotic area/(fibrotic+non-fibrotic area) based on all sections. The thinning index is a ratio of the amount of wall thinning in the infarct normalized to the thickness of the septum and is calculated by dividing the minimal infarct wall thickness with maximal septal wall thickness (2 weeks: section 1 to 4, 3 month: section 1 to 6 from base).

[3] = system: myocardial infarction in adult rats; assay: Vessel density in the scar area after myocardial infarction; details: rats after MI
Procedure: as §1, with “We performed two blinded and randomized studies using 62 rats for the 2 week and 61 rats for the 3 month experiment, with at least 10 animals in each experimental group. Animals were treated with saline plus BSA (control), SB203580 HCl plus BSA (p38i), saline plus FGF1 (FGF1), or SB203580 HCl plus FGF1 (p38i/FGF1).” left out
One possible explanation is the angiogenic effect of FGF1. To determine the effect of our treatments on vascularization we determined the vessel density in the scar area. […]
Hearts were embedded in tissue-freezing medium (Fisher) without fixation, frozen in 2-methylbutane (cooled in liquid nitrogen), stored at −80° C., and finally sectioned (20 μm; Leica 3050S). […] Immune complexes were detected with ALEXA 488-, or ALEXA 594-conjugated secondary antibodies (1:400; Molecular Probes). […]

In the case of FGF1: growth factor FGF1 (R&D Systems), the “improvement of fractional shortening” value ([1]; 3 month after infarction) is reported as “maintained”, the “left ventricular fractional shortening” value ([1]; 24 hours after MI) is reported as “significantly improved” and the “improvement of fractional shortening” value ([1]; day 14 after infarction) is reported as “maintained”. The “left ventricular wall thinning (thinning index)” value ([2]; 2 weeks) was “significantly reduced”, the ventricular wall thinning ([2]; 3 month) was “significantly improved” and the “vessel density in the scar area” value [3] was “increases significantly”.
